Test results as given in patent US9096571B2, “Picolinamide and pyrimidine-4-carboxamide compounds, process for preparing and pharmaceutical composition comprising the same” (SK CHEMICALS CO., LTD., priority 2010, dated 2015).

How the values were obtained:
11β-HSD1 = biological target: T1, 11β-HSD1 (Homo sapiens, UniProt P28845); conditions: healthy candidates and type 2 diabetic patients, but not the obese; cited from earlier work
T1 construct: host or cells: human subjects in vivo

[1] = biological target: T2, human-derived 11β-HSD1 (h11β-HSD1) enzyme (Homo sapiens, UniProt P28845); assay: Cell assay on 11β-HSD1 (HEK-293 cells overexpressing h11β-HSD1, cortisone to cortisol, cortisol ELISA); format: cell-based; conditions: HEK293, HEK-293 cells transfected with h11β-HSD1; for inhibition at 10 µM: 10 μM compound, read-out: hHSD1 inhibiting activity, % inhibition at 10 μM; for inhibition at 100 µM: 100 μM compound, read-out: hHSD1 inhibiting activity, % inhibition at 100 μM
T2 construct: expressed in transfected cells; host or cells: HEK-293 cells, transfected with Fugene 6
T2 sequence (P28845 whole entry): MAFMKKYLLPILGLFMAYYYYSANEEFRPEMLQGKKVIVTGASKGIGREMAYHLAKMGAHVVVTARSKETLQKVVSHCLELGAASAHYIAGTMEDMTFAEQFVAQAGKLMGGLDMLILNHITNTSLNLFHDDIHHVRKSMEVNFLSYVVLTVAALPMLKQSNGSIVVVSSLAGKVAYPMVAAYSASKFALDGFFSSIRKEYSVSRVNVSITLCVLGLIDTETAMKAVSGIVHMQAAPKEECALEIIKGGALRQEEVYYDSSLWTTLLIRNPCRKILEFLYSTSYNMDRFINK
Protocol: In order to investigate inhibitory effects of the compounds according to the present invention on activity of human-derived 11β-HSD1 (h11β-HSD1) enzyme, the following experiment was performed.
To assay the activity of the 11β-HSD1 enzyme, a recombinant DNA having h11β-HSD1 gene was introduced into an animal cell to induce overexpression of the enzyme [Arampatzis, S. J Mol. Endocrinol. […] First, HEK-293 cells were incubated using a cell incubator until they reached 70-80% confluency on a surface of the container. The recombinant DNA having h11β-HSD1 gene was mixed with Fugene 6, followed by reaction at room temperature for 1 hour. The resulting material was used to treat the cells, and thus DNA was injected into the cells. The next day, the cell supernatant was removed, followed by supplement of fresh medium, and then the cells were further incubated for 24 hours in the cell incubator.
When the cells were incubated at 70-80% confluency, the cells were detached with trypsin, and the number of cells was measured by using a Hemacytometer. The incubated liquid was diluted to contain 20,000 cells/ml, and 100 μl of the diluted liquid was plated onto each well of the 96-well plate. Following incubation for 24 hours, the compound dissolved in DMSO was diluted to 1/100 by the incubated liquid. 100 μl of the resulting compound-diluted liquid was dispensed into each well, and then incubated for 30 minutes.
The quantitative assay of cortisol generated in this reaction was performed by using a system provided from Assay Designs Inc. The resultant enzyme reactant was added to the plate coated with anti-mouse IgG, and then a specific antibody binding to the cortisol and alkaline phosphatase-bound cortisol are together input thereto, followed by reaction at room temperature for 2 hours. The contents in the wells after reaction were thrown away, and then washing was performed with a buffer solution consisting of surfactant and tris-buffered saline three times. After that, a p-nitrophenyl phosphate solution, which is a substrate for the alkaline phosphatase, was input thereto for coloring reaction, followed by reaction for 1 hour, and then the light absorbance at 405 nm was measured by using a plate reader.

T1 sequence (P28845 whole entry): as above

| Structure (SMILES) | effect on insulin sensitivity (11β-HSD1) | inhibition at 10 µM [1] | inhibition at 100 µM [1] |
| --- | --- | --- | --- |
| CC1(C)[C@@H](OC(=O)CCC(=O)O)CC[C@]2(C)[C@H]3C(=O)C=C4[C@@H]5C[C@@](C)(C(=O)O)CC[C@]5(C)CC[C@@]4(C)[C@]3(C)CC[C@@H]12 [Carbenoxolone] | improves insulin sensitivity |  |  |
| O=C(N[C@H]1C2CC3CC1C[C@](O)(C3)C2)c1cccc(N2CCC(c3ccccc3)CC2)n1 [Example 47] |  | 36% | 96% |
| O=C(N[C@H]1C2CC3CC1C[C@](O)(C3)C2)c1cccc(N2CCc3ccccc3C2)n1 [Example 60] |  | 68% | 82% |
| CC1CCCCN1c1cccc(C(=O)N[C@H]2C3CC4CC2C[C@](O)(C4)C3)n1 (stereo partly drawn) [Example 61] |  | 68% | 83% |
| CS(=O)(=O)c1ccc(N2CCN(c3cccc(C(=O)N[C@H]4C5CC6CC4C[C@](O)(C6)C5)n3)CC2)cc1 [Example 77, N-((E)-5-hydroxyadamantan-2-yl)-6-(4-(4-(methylsulfonyl)phenyl)piperazin-1-yl)picolinamide] |  | 73% | 87% |
| O=C(N[C@H]1C2CC3CC1C[C@](O)(C3)C2)c1cccc(N2CCN(c3ccc(F)cn3)CC2)n1 [Example 87] |  | 40% | 79% |
| Cc1ccc(N2CCN(c3cccc(C(=O)N[C@H]4C5CC6CC4C[C@](O)(C6)C5)n3)CC2)nc1 [Example 88] |  | 40% | 84% |
| O=C(N[C@H]1C2CC3CC1C[C@](O)(C3)C2)c1cccc(N2CCC(c3ccc(F)cn3)CC2)n1 [Example 97] |  | 58% | 77% |
| Cc1ccc(C2CCN(c3cccc(C(=O)N[C@H]4C5CC6CC4C[C@](O)(C6)C5)n3)CC2)nc1 [Example 98] |  | 38% | 78% |
| COc1ccc(N2CCN(c3cccc(C(=O)N[C@H]4C5CC6CC4C[C@](O)(C6)C5)n3)[C@H](C)C2)nc1 [Example 118] |  | 64% | 84% |
| COc1ccc(N2CCN(c3cccc(C(=O)N[C@H]4C5CC6CC4C[C@](O)(C6)C5)n3)[C@H](C)C2)cn1 [Example 119] |  | 65% | 81% |
| COc1ccc(N2CCCN(c3cccc(C(=O)N[C@H]4C5CC6CC4C[C@](O)(C6)C5)n3)CC2)c(F)c1 [Example 124] |  | 54% | 85% |
| C[C@@H]1CN(c2ccc(N)nc2)CCN1c1cccc(C(=O)N[C@H]2C3CC4CC2C[C@](O)(C4)C3)n1 [Example 125, 6-((R)-4-(6-aminopyridin-3-yl)-2-methylpiperazin-1-yl)-N-((E)-5-hydroxyadamantan-2-yl)picolinamide] |  | 48% | 79% |
| COc1ccc(N2CCN(c3cccc(C(=O)N[C@H]4C5CC6CC4C[C@](O)(C6)C5)n3)[C@H](C)C2)cc1C(N)=O [Example 150] |  | 76% | 87% |
| CNC(=O)c1cc(N2CCN(c3cccc(C(=O)N[C@H]4C5CC6CC4C[C@](O)(C6)C5)n3)[C@H](C)C2)ccc1OC [Example 151] |  | 75% | 85% |
| C[C@@H]1CN(c2ccc(C(C)(C)O)cc2)CCN1c1cccc(C(=O)N[C@H]2C3CC4CC2C[C@](O)(C4)C3)n1 [Example 173, N-((E)-5-hydroxyadamantan-2-yl)-6-((R)-4-(4-(2-hydroxypropan-2-yl)phenyl)-2-methylpiperazin-1-yl)picolinamide] |  | 81% | 87% |
| C[C@@H]1CN(c2ccc(OCC(N)=O)c(Cl)c2)CCN1c1cccc(C(=O)N[C@H]2C3CC4CC2C[C@](O)(C4)C3)n1 [Example 190, 6-((R)-4-(4-(2-amino-2-oxoethoxy)-3-chlorophenyl)-2-methylpiperazin-1-yl)-N-((E)-5-hydroxyadamantan-2-yl)picolinamide] |  | 76% | 89% |
| C[C@@H]1CN(CC(C)(C)O)CCN1c1cccc(C(=O)N[C@H]2C3CC4CC2C[C@](O)(C4)C3)n1 [Example 192, 6-((R)-4-(2-hydroxy-2-methylpropyl)-2-methylpiperazin-1-yl)-N-((E)-5-hydroxyadamantan-2-yl)picolinamide] |  | 41% | 85% |
| C[C@@H]1CN(C2CC2)CCN1c1cccc(C(=O)N[C@H]2C3CC4CC2C[C@](O)(C4)C3)n1 [Example 196, 6-((R)-4-cyclopropyl-2-methylpiperazin-1-yl)-N-((E)-5-hydroxyadamantan-2-yl)picolinamide] |  | 64% | 86% |
| C[C@@H]1CN(C2CCN(S(C)(=O)=O)CC2)CCN1c1cccc(C(=O)N[C@H]2C3CC4CC2C[C@](O)(C4)C3)n1 [Example 201, N-((E)-5-hydroxyadamantan-2-yl)-6-((R)-2-methyl-4-(1-(methylsulfonyl)piperidin-4-yl)piperazin-1-yl)picolinamide] |  | 40% | 78% |
| C[C@@H]1CN(S(C)(=O)=O)CCN1c1cccc(C(=O)N[C@H]2C3CC4CC2C[C@](O)(C4)C3)n1 [Example 204] |  | 41% | 76% |
| COc1ccc(N2CCN(c3nccc(C(=O)N[C@H]4C5CC6CC4C[C@](O)(C6)C5)n3)[C@H](C)C2)c(F)c1 [Example 231] |  | 42% | 78% |
| C[C@H]1CN(c2ccc(S(C)(=O)=O)cc2F)CCN1c1nccc(C(=O)N[C@H]2C3CC4CC2C[C@](O)(C4)C3)n1 [Example 284] |  | 56% | 86% |
